Experimental data published in ChEMBL document CHEMBL5723582, “Data for DCP probe T-10430” (2024).

Tests used:
[1] = target: G-protein coupled bile acid receptor 1 (Homo sapiens) (UniProt Q8TDU6); assay: RLU of GPBA at 1.0 µM in the […] PRESTO-Tango GPCRome screen; settings: Compound concentration 1.0 uM
[2] = target: C-C chemokine receptor-like 2 (Homo sapiens) (UniProt O00421); assay: RLU of CCRL2 at 1.0 µM in the […] PRESTO-Tango GPCRome screen; settings: Compound concentration 1.0 uM
[3] = target: Substance-K receptor (Homo sapiens) (UniProt P21452); assay: RLU of TACR2 at 1.0 µM in the […] PRESTO-Tango GPCRome screen; settings: Compound concentration 1.0 uM
[4] = target: C-X-C chemokine receptor type 3 (Homo sapiens) (UniProt P49682); assay: RLU of CXCR3 at 1.0 µM in the […] PRESTO-Tango GPCRome screen; settings: Compound concentration 1.0 uM
[5] = target: Kappa-type opioid receptor (Homo sapiens) (UniProt P41145); assay: RLU of OPRK1 at 1.0 µM in the […] PRESTO-Tango GPCRome screen; settings: Compound concentration 1.0 uM
[6] = target: G-protein coupled receptor 83 (Homo sapiens) (UniProt Q9NYM4); assay: RLU of GPR83 at 1.0 µM in the […] PRESTO-Tango GPCRome screen; settings: Compound concentration 1.0 uM
[7] = target: Type-1 angiotensin II receptor (Homo sapiens, UniProt P30556); assay: IP-One assay (AGTR1), antagonist mode at up to 50 µM ( vs. 10 nM Val5-Angiotensin II); type: functional; design: compound concentration < 50 uM
[8] = target: B2 bradykinin receptor (Homo sapiens) (UniProt P30411); assay: RLU of BDKRB2 at 1.0 µM in the […] PRESTO-Tango GPCRome screen; settings: Compound concentration 1.0 uM
[9] = target: C5a anaphylatoxin chemotactic receptor 1 (Homo sapiens) (UniProt P21730); assay: RLU of C5A at 1.0 µM in the […] PRESTO-Tango GPCRome screen; settings: Compound concentration 1.0 uM
[10] = target: G-protein coupled receptor 146 (Homo sapiens) (UniProt Q96CH1); assay: RLU of GPR146 at 1.0 µM in the […] PRESTO-Tango GPCRome screen; settings: Compound concentration 1.0 uM
[11] = target: Parathyroid hormone/parathyroid hormone-related peptide receptor (Homo sapiens) (UniProt Q03431); assay: RLU of PTH1R at 1.0 µM in the […] PRESTO-Tango GPCRome screen; settings: Compound concentration 1.0 uM
[12] = target: Free fatty acid receptor 3 (Homo sapiens) (UniProt O14843); assay: RLU of FFA3 (GPR41) at 1.0 µM in the […] PRESTO-Tango GPCRome screen; settings: Compound concentration 1.0 uM
[13] = target: Beta-1 adrenergic receptor (Homo sapiens) (UniProt P08588); assay: RLU of ADRB1 at 1.0 µM in the […] PRESTO-Tango GPCRome screen; settings: Compound concentration 1.0 uM
[14] = target: Prosaposin receptor GPR37 (Homo sapiens) (UniProt O15354); assay: RLU of GPR37 at 1.0 µM in the […] PRESTO-Tango GPCRome screen; settings: Compound concentration 1.0 uM
[15] = target: G-protein coupled receptor 161 (Homo sapiens) (UniProt Q8N6U8); assay: RLU of GPR161 at 1.0 µM in the […] PRESTO-Tango GPCRome screen; settings: Compound concentration 1.0 uM
[16] = target: Muscarinic acetylcholine receptor M2 (Homo sapiens) (UniProt P08172); assay: RLU of CHRM2 at 1.0 µM in the […] PRESTO-Tango GPCRome screen; settings: Compound concentration 1.0 uM
[17] = target: Probable G-protein coupled receptor 25 (Homo sapiens) (UniProt O00155); assay: RLU of GPR25 at 1.0 µM in the […] PRESTO-Tango GPCRome screen; settings: Compound concentration 1.0 uM
[18] = target: Glucose-dependent insulinotropic receptor (Homo sapiens) (UniProt Q8TDV5); assay: RLU of GPR119 at 1.0 µM in the […] PRESTO-Tango GPCRome screen; settings: Compound concentration 1.0 uM
[19] = target: C3a anaphylatoxin chemotactic receptor (Homo sapiens) (UniProt Q16581); assay: RLU of C3AR1 at 1.0 µM in the […] PRESTO-Tango GPCRome screen; settings: Compound concentration 1.0 uM
[20] = target: Mas-related G-protein coupled receptor member X2 (Homo sapiens) (UniProt Q96LB1); assay: RLU of MRGPRX2 at 1.0 µM in the […] PRESTO-Tango GPCRome screen; settings: Compound concentration 1.0 uM
[21] = target: Neuromedin-U receptor 1 (Homo sapiens) (UniProt Q9HB89); assay: RLU of NMUR1 at 1.0 µM in the […] PRESTO-Tango GPCRome screen; settings: Compound concentration 1.0 uM
[22] = target: Thyrotropin receptor (Homo sapiens) (UniProt P16473); assay: RLU of TSHR at 1.0 µM in the […] PRESTO-Tango GPCRome screen; settings: Compound concentration 1.0 uM
[23] = target: Beta-2 adrenergic receptor (Homo sapiens) (UniProt P07550); assay: RLU of ADRB2 at 1.0 µM in the […] PRESTO-Tango GPCRome screen; settings: Compound concentration 1.0 uM
[24] = target: B1 bradykinin receptor (Homo sapiens) (UniProt P46663); assay: RLU of BDKRB1 at 1.0 µM in the […] PRESTO-Tango GPCRome screen; settings: Compound concentration 1.0 uM
[25] = target: Prostaglandin E2 receptor EP3 subtype (Homo sapiens) (UniProt P43115); assay: RLU of PTGER3 at 1.0 µM in the […] PRESTO-Tango GPCRome screen; settings: Compound concentration 1.0 uM
[26] = target: Endothelin receptor type B (Homo sapiens) (UniProt P24530); assay: RLU of EDNRB at 1.0 µM in the […] PRESTO-Tango GPCRome screen; settings: Compound concentration 1.0 uM
[27] = target: G-prodeshotein coupled receptor 4 (Homo sapiens) (UniProt P46093); assay: RLU of GPR4 at 1.0 µM in the […] PRESTO-Tango GPCRome screen; settings: Compound concentration 1.0 uM
[28] = RLU of HCTR2 at 1.0 µM in the Aequorin PRESTO-Tango GPCRome screen; settings: Homo sapiens; Compound concentration 1.0 uM
[29] = target: Melatonin receptor type 1A (Homo sapiens) (UniProt P48039); assay: RLU of MTNR1A at 1.0 µM in the […] PRESTO-Tango GPCRome screen; settings: Compound concentration 1.0 uM
[30] = target: Sphingosine 1-phosphate receptor 4 (Homo sapiens) (UniProt O95977); assay: RLU of S1PR4 at 1.0 µM in the […] PRESTO-Tango GPCRome screen; settings: Compound concentration 1.0 uM
[31] = target: Prostaglandin F2-alpha receptor (Homo sapiens) (UniProt P43088); assay: RLU of PTGFR at 1.0 µM in the […] PRESTO-Tango GPCRome screen; settings: Compound concentration 1.0 uM
[32] = target: G-protein coupled receptor 78 (Homo sapiens) (UniProt Q96P69); assay: RLU of GPR78 at 1.0 µM in the […] PRESTO-Tango GPCRome screen; settings: Compound concentration 1.0 uM
[33] = target: Neuromedin-B receptor (Homo sapiens) (UniProt P28336); assay: RLU of NMBR at 1.0 µM in the […] PRESTO-Tango GPCRome screen; settings: Compound concentration 1.0 uM
[34] = target: Delta-type opioid receptor (Homo sapiens) (UniProt P41143); assay: RLU of OPRD1 at 1.0 µM in the […] PRESTO-Tango GPCRome screen; settings: Compound concentration 1.0 uM
[35] = target: Histamine H4 receptor (Homo sapiens) (UniProt Q9H3N8); assay: RLU of HRH4 at 1.0 µM in the Aequorin PRESTO-Tango GPCRome screen; settings: Compound concentration 1.0 uM

Sequence of Parathyroid hormone/parathyroid hormone-related peptide receptor (Homo sapiens) (Q03431 whole entry): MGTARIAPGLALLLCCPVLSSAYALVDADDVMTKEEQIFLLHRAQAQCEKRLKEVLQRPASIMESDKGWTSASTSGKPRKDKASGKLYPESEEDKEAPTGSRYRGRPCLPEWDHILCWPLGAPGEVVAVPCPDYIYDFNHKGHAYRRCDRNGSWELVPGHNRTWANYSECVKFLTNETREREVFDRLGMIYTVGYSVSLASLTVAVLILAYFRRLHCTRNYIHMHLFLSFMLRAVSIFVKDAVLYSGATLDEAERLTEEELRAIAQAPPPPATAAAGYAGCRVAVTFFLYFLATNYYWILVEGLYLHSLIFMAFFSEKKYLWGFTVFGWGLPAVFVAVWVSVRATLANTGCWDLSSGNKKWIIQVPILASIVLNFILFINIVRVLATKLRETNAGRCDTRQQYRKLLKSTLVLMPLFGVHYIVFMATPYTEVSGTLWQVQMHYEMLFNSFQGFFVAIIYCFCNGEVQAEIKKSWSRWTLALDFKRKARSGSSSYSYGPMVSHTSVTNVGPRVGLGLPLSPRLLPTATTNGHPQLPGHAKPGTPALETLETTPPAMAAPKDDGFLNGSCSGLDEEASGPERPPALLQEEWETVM
Sequence of Prosaposin receptor GPR37 (Homo sapiens) (O15354 whole entry): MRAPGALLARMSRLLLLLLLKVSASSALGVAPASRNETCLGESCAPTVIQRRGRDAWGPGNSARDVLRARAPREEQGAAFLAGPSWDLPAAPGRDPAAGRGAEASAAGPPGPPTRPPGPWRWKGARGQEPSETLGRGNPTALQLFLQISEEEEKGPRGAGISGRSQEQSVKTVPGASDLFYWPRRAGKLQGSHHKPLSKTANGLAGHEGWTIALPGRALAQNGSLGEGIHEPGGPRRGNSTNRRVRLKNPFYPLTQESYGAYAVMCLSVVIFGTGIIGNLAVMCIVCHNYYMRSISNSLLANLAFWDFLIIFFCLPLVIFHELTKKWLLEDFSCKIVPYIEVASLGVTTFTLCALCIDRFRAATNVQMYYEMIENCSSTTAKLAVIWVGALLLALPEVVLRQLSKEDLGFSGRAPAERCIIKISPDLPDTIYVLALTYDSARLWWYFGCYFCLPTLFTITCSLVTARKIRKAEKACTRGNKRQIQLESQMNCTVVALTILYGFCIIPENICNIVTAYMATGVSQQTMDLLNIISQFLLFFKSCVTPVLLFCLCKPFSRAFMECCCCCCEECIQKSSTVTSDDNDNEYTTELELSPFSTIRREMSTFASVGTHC
Sequence of B1 bradykinin receptor (Homo sapiens) (P46663 whole entry): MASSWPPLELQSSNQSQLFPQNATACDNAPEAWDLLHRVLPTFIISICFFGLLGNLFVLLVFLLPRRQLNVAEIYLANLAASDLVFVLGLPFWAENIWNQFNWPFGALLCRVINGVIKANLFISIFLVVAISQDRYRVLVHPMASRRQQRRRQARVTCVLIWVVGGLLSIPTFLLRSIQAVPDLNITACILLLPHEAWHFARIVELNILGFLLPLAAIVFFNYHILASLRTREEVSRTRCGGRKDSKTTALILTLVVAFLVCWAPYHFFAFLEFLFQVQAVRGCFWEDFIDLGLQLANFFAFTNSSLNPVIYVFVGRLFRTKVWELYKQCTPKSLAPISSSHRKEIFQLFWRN
Sequence of C-X-C chemokine receptor type 3 (Homo sapiens) (P49682 whole entry): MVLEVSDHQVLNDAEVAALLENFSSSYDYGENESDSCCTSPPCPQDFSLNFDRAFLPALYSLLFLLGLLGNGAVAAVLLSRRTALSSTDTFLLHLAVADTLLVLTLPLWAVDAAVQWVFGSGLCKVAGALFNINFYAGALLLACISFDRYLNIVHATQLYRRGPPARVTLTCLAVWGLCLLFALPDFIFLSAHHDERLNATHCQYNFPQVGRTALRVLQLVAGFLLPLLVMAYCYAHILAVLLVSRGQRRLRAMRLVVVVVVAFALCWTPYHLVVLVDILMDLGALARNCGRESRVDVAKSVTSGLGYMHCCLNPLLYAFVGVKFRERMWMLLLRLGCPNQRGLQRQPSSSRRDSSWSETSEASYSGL
Sequence of G-protein coupled receptor 83 (Homo sapiens) (Q9NYM4 whole entry): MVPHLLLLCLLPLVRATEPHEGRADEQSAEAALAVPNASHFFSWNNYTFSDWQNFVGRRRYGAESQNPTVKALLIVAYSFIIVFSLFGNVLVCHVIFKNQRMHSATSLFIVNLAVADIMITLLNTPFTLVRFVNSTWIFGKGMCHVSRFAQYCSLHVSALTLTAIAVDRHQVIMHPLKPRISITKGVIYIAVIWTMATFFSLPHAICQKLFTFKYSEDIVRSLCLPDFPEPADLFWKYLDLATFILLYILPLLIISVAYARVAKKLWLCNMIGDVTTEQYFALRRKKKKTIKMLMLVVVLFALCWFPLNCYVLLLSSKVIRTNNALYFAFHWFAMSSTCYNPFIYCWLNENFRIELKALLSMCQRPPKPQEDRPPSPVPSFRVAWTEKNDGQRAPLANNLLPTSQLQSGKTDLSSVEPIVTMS
Sequence of G-protein coupled receptor 78 (Homo sapiens) (Q96P69 whole entry): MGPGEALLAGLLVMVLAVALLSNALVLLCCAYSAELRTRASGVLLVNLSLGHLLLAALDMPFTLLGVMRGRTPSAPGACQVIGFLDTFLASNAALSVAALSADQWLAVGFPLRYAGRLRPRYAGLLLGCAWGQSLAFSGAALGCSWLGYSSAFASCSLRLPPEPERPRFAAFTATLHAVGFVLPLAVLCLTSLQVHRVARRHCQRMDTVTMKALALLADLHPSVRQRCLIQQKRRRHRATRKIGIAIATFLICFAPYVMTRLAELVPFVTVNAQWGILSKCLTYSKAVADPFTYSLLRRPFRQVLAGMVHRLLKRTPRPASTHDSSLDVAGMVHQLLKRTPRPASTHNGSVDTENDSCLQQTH
Sequence of G-protein coupled receptor 146 (Homo sapiens) (Q96CH1 whole entry): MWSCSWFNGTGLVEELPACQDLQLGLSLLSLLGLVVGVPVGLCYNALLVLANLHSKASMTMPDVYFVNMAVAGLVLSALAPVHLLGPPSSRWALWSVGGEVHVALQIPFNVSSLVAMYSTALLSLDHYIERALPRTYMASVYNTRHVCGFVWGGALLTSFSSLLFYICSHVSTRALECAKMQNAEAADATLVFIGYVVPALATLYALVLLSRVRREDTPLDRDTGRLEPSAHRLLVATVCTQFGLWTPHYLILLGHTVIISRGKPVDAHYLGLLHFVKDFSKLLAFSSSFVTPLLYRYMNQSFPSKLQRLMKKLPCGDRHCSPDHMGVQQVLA
Sequence of Prostaglandin E2 receptor EP3 subtype (Homo sapiens) (P43115 whole entry): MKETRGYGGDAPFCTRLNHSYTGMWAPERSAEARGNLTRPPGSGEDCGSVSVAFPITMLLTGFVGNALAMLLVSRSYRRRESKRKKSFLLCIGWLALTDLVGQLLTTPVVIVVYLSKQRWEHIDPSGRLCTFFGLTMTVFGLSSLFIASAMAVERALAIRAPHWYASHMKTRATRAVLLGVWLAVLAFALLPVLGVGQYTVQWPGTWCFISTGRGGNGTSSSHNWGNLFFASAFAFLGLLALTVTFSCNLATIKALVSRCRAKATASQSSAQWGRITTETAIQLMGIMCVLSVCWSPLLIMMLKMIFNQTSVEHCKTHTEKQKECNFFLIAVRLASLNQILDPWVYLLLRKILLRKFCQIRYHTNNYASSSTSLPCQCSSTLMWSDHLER
Sequence of G-protein coupled receptor 161 (Homo sapiens) (Q8N6U8 whole entry): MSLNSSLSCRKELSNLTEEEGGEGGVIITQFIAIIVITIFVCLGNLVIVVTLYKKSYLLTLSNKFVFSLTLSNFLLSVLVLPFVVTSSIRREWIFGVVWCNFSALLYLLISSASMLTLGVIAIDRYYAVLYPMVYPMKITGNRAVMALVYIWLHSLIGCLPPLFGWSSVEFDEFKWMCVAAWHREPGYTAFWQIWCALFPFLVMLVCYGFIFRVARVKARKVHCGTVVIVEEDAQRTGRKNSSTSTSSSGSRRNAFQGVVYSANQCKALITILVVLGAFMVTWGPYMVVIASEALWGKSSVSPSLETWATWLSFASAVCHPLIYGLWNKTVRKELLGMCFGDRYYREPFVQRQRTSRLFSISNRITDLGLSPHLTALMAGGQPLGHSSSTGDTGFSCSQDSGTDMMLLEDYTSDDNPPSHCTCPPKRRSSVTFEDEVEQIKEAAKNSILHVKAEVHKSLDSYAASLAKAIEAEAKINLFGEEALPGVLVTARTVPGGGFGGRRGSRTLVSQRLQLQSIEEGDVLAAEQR
Sequence of Beta-2 adrenergic receptor (Homo sapiens) (P07550 whole entry, looked up): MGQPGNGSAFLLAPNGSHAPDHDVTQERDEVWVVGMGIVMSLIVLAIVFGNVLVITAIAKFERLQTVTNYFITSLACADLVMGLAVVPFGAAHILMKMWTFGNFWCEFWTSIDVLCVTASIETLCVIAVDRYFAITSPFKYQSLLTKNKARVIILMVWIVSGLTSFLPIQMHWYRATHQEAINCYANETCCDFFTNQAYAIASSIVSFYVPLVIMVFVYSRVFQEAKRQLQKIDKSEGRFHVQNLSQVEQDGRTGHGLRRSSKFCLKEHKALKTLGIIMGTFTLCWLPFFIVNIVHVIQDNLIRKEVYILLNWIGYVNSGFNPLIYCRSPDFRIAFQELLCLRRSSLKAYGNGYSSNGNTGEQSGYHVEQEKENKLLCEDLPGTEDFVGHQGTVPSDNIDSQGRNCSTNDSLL
Sequence of Type-1 angiotensin II receptor (P30556 whole entry): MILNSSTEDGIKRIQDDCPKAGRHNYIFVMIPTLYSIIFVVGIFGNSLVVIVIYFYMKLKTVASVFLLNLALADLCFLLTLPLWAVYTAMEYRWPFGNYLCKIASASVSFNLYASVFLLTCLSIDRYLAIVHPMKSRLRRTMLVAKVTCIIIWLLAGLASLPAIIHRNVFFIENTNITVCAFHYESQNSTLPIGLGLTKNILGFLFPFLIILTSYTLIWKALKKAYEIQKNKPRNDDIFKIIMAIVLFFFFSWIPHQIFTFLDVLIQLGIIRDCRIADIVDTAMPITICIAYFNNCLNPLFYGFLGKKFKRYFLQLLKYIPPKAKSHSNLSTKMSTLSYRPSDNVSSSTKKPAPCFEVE

RLU [1]: 275
RLU [2]: -1900
RLU [3]: -238
RLU [4]: -568
RLU [5]: 156
RLU [6]: 834
EC50 [7]: > 50 µM (not active)
RLU [8]: 892
RLU [10]: -1510
RLU [11]: 13.4
RLU [12]: 1880
RLU [13]: 19400
RLU [14]: -1510
RLU [15]: -2640
RLU [16]: -12800
RLU [17]: -1210
RLU [18]: 272
RLU [20]: -9420
RLU [21]: 1950
RLU [22]: -406
RLU [23]: 4580
RLU [24]: -3310
RLU [25]: 83.2
RLU [26]: -88.5
RLU [27]: -970
RLU [28]: 2840
RLU [29]: 466
RLU [30]: -471
RLU [31]: -81.2
RLU [32]: 5.41
RLU [33]: 937
RLU [34]: 1290
RLU [35]: -637
Compound: CCCCC(=O)N1CC2(C1)CN(c1ccccc1-c1nnn[nH]1)C2
RLU [9]: 2280
RLU [19]: 4830
